{"source": "paper PMC6593727", "about": "(Clinical Pharmacology in Drug Development, 2019)", "key": {"healthy female subjects": {"system": "healthy female subjects", "experiment": "Safety and tolerability: adverse events", "format": "in vivo, human"}, "CYP3A4 [1]": {"molecular_target": "T1, CYP3A4 (Homo sapiens, UniProt P08684)", "T1 sequence (P08684 whole entry)": "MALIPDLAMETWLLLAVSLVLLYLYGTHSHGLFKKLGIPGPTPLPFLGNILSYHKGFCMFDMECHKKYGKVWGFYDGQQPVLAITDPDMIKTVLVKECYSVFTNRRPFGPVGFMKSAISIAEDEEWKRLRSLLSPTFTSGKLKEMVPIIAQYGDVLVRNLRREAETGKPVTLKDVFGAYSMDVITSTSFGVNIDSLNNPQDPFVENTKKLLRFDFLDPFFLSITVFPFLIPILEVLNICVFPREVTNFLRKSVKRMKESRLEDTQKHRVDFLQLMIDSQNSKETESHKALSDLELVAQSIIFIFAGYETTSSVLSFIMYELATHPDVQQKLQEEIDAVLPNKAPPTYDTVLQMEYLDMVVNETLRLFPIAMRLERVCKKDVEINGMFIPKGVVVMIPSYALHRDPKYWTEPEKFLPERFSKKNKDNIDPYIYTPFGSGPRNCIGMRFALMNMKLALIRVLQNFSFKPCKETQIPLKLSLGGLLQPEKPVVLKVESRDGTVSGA"}, "CYP2C9 [2]": {"molecular_target": "T2, CYP2C9 (Homo sapiens, UniProt P11712)", "T2 sequence (P11712 whole entry)": "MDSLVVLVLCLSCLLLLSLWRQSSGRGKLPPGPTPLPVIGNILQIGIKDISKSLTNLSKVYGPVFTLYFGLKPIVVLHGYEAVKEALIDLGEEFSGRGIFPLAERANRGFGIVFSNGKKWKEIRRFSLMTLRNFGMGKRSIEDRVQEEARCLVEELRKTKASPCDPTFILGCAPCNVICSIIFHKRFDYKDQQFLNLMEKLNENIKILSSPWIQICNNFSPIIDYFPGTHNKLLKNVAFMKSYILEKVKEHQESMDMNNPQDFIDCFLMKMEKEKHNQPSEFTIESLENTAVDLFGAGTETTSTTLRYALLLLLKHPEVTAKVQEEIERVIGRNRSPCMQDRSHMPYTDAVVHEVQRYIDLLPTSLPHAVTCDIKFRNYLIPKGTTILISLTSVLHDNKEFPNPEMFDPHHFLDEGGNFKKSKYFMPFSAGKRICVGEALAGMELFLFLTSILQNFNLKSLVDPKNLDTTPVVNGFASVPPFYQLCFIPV", "experiment": "In vitro CYP inhibition studies in human liver microsomes using probe substrates", "format": "biochemical", "conditions": "for R value (FDA): R = 1 + (total Cmax/Ki); for R value (EMA): R = unbound Cmax/Ki"}, "CYP enzymes": {"system": "CYP enzymes", "experiment": "Induction of CYP enzymes in vitro", "format": "in vitro ADME"}, "CYP2D6 [3]": {"molecular_target": "T3, CYP2D6 (Homo sapiens, UniProt P10635)", "T3 sequence (P10635 whole entry)": "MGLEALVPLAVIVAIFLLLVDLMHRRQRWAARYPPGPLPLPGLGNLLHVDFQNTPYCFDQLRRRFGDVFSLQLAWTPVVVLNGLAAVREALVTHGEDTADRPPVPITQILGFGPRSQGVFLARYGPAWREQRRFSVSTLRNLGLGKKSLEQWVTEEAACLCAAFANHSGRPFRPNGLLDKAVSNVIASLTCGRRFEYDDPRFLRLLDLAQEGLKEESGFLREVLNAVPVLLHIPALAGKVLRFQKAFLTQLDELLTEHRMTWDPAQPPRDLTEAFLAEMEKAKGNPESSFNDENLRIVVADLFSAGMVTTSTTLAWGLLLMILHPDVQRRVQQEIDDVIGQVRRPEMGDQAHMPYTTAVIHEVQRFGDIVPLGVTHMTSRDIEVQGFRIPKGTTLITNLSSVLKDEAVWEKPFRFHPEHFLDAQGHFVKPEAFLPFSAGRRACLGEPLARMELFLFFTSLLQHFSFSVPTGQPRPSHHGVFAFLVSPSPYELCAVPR"}, "CYP3A4 [4]": {"molecular_target": "T1, CYP3A4", "experiment": "In vitro CYP inhibition studies in human liver microsomes using probe substrates", "format": "biochemical", "conditions": "for R value (FDA): R = 1 + (total Cmax/Ki); for R value (EMA): R = unbound Cmax/Ki"}, "[5]": {"experiment": "ASP8477 steady‐state plasma PK in the cocktail study", "format": "in vivo, human", "conditions": "for Ctrough: mean ± SD"}, "CYP2C19 [6]": {"molecular_target": "T4, CYP2C19 (Homo sapiens, UniProt P33261)", "T4 sequence (P33261 whole entry)": "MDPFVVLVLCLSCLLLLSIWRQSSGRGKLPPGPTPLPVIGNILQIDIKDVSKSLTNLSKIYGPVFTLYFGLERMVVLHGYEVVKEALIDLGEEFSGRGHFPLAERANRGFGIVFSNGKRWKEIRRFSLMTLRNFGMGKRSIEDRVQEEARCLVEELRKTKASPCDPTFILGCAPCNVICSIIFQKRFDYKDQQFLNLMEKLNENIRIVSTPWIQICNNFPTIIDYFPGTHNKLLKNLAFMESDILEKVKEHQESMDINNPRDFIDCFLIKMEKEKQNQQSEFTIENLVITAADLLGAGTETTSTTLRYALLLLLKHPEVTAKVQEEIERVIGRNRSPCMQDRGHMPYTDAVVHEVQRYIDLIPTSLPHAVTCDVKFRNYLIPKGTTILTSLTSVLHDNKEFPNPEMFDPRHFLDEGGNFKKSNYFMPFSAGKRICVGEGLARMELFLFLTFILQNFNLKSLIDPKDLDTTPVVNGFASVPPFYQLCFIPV"}, "CYP2C8": {"molecular_target": "T5, CYP2C8 (Homo sapiens, UniProt P10632)", "T5 sequence (P10632 1-490)": "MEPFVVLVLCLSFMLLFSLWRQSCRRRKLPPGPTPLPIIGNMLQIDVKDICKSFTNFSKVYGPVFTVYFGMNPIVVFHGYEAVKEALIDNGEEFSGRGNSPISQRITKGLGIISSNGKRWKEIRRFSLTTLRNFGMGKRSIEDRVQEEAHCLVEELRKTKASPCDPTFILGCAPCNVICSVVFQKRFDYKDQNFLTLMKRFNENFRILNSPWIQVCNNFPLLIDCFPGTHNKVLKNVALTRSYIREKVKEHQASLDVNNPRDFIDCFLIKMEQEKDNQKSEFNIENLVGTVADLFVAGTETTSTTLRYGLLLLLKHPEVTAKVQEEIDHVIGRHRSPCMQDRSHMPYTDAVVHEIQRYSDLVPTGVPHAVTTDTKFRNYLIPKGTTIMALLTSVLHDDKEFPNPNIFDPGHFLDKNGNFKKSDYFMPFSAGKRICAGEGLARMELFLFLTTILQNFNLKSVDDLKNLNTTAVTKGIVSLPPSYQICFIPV", "experiment": "In vitro CYP inhibition studies in human liver microsomes using probe substrates", "format": "biochemical", "conditions": "for R value (FDA): R = 1 + (total Cmax/Ki); for R value (EMA): R = unbound Cmax/Ki"}, "CYP2C9 [7]": {"molecular_target": "T2, CYP2C9", "experiment": "Inje cocktail DDI study: losartan and EXP‐3174 PK, assessment of CYP2C9 activity"}, "[8]": {"experiment": "Fraction of unbound ASP8477 in humans", "format": "in vitro ADME, human", "conditions": "independent of the clinical concentration range"}, "[9]": {"conditions": "ref clinical studies, cited from earlier work"}, "CYP2C19 [10]": {"molecular_target": "T4, CYP2C19", "experiment": "In vitro CYP inhibition studies in human liver microsomes using probe substrates", "format": "biochemical", "conditions": "for R value (FDA): R = 1 + (total Cmax/Ki); for R value (EMA): R = unbound Cmax/Ki"}, "CYP2D6 [11]": {"molecular_target": "T3, CYP2D6", "experiment": "In vitro CYP inhibition studies in human liver microsomes using probe substrates", "format": "biochemical", "conditions": "for R value (FDA): R = 1 + (total Cmax/Ki); for R value (EMA): R = unbound Cmax/Ki"}, "[12]": {"conditions": "female, human, plasma, oral, 20 mg"}, "[13]": {"conditions": "female, human, plasma, oral, 60 mg"}, "[14]": {"conditions": "female, human, plasma, oral, 100 mg"}}, "note": "Like-named read-outs stand apart in the source and are kept apart here.", "data": [{"smiles": "O=C(Nc1ccccc1)C1CCN(C(=O)Oc2cccnc2)CC1", "note": "[ASP8477, 3‐pyridyl 4‐(phenylcarbamoyl)piperidine‐1‐carboxylate]", "values": [{"measurement": "tolerability", "setting": "healthy female subjects; ASP8477 in conjunction with cocktail probes, healthy female subjects", "value": "generally well tolerated"}, {"measurement": "fatigue of moderate intensity (most frequent moderate AE)", "setting": "healthy female subjects; all dose levels", "value": 5, "unit": "subjects"}, {"measurement": "discontinuation due to an AE (emotional lability, moderate)", "setting": "healthy female subjects; day 15, at the 60 mg level", "value": 1, "unit": "subject"}, {"measurement": "AEs considered possibly or probably related to study drug", "setting": "healthy female subjects; following 20 mg ASP8477", "value": 11, "unit": "subjects"}, {"measurement": "AEs considered possibly or probably related to study drug", "setting": "healthy female subjects; following 60 mg ASP8477", "value": 11, "unit": "subjects"}, {"measurement": "AEs considered possibly or probably related to study drug", "setting": "healthy female subjects; following 100 mg ASP8477", "value": 13, "unit": "subjects"}, {"measurement": "serious AEs or deaths", "setting": "healthy female subjects; whole study", "value": "No serious AEs or deaths"}, {"measurement": "in vivo CYP inhibition class (FDA guidance, AUC of probe substrate)", "setting": "CYP3A4 [1]; 60 mg dose level", "value": "weak (1.25‐ to <2‐fold)"}, {"measurement": "in vivo CYP inhibition class (FDA guidance, AUC of probe substrate)", "setting": "CYP3A4 [1]; 100 mg dose level", "value": "weak (1.25‐ to <2‐fold)"}, {"measurement": "overall in vivo inhibitor class", "setting": "CYP3A4 [1]; doses from 20 to 100 mg", "value": "weak (1.25‐ to <2‐fold)"}, {"measurement": "Ki", "setting": "CYP2C9 [2]", "value": 8, "unit": "µM"}, {"measurement": "R value (FDA)", "setting": "CYP2C9 [2]; ASP8477 20 mg QD", "value": 1.140}, {"measurement": "R value (EMA)", "setting": "CYP2C9 [2]; ASP8477 20 mg QD", "value": 0.021}, {"measurement": "R value (FDA)", "setting": "CYP2C9 [2]; ASP8477 60 mg QD", "value": 1.723}, {"measurement": "R value (EMA)", "setting": "CYP2C9 [2]; ASP8477 60 mg QD", "value": 0.11}, {"measurement": "effect on the induction of CYP enzymes", "setting": "CYP enzymes", "value": "No clinically relevant effect"}, {"measurement": "in vivo CYP inhibition class (FDA guidance, AUC of probe substrate)", "setting": "CYP2D6 [3]; 20 mg dose level", "value": "weak (1.25‐ to <2‐fold)"}, {"measurement": "in vivo CYP inhibition class (FDA guidance, AUC of probe substrate)", "setting": "CYP2D6 [3]; 60 mg dose level", "value": "moderate (2‐ to <5‐fold)"}, {"measurement": "in vivo CYP inhibition class (FDA guidance, AUC of probe substrate)", "setting": "CYP2D6 [3]; 100 mg dose level", "value": "strong (≥5‐fold)"}, {"measurement": "overall in vivo inhibitor class", "setting": "CYP2D6 [3]; doses from 20 to 100 mg", "value": "weak to strong"}, {"measurement": "Ki", "setting": "CYP3A4 [4]", "value": 18, "unit": "µM"}, {"measurement": "R value (FDA)", "setting": "CYP3A4 [4]; ASP8477 20 mg QD", "value": 1.062}, {"measurement": "R value (EMA)", "setting": "CYP3A4 [4]; ASP8477 20 mg QD", "value": 0.009}, {"measurement": "R value (FDA)", "setting": "CYP3A4 [4]; ASP8477 60 mg QD", "value": 1.321}, {"measurement": "R value (EMA)", "setting": "CYP3A4 [4]; ASP8477 60 mg QD", "value": 0.05}, {"measurement": "dose proportionality of Cmax and AUCtau", "setting": "[5]; 20, 60, 100 mg once daily", "value": "more than dose‐proportional"}, {"measurement": "Ctrough", "setting": "[5]; Day 14, 60 mg ASP8477 qd", "value": "91 ± 110", "unit": "ng/mL"}, {"measurement": "Ctrough", "setting": "[5]; Day 23, 100 mg ASP8477 qd", "value": "740 ± 640", "unit": "ng/mL"}, {"measurement": "AUC", "setting": "[5]; [12]", "value": "1600 ± 710", "unit": "ng·h/mL"}, {"measurement": "Cmax", "setting": "[5]; [12]", "value": "400 ± 120", "unit": "ng/mL"}, {"measurement": "Tmax", "setting": "[5]; [12]", "value": 1, "unit": "h"}, {"measurement": "Cmax", "setting": "[5]; [13]", "value": "2000 ± 490", "unit": "ng/mL"}, {"measurement": "Tmax", "setting": "[5]; [13]", "value": 2, "unit": "h"}, {"measurement": "Cmax", "setting": "[5]; [14]", "value": "4200 ± 1200", "unit": "ng/mL"}, {"measurement": "Tmax", "setting": "[5]; [14]", "value": 2, "unit": "h"}, {"measurement": "in vivo CYP inhibition class (FDA guidance, AUC of probe substrate)", "setting": "CYP2C19 [6]; 20 mg dose level", "value": "moderate (2‐ to <5‐fold)"}, {"measurement": "in vivo CYP inhibition class (FDA guidance, AUC of probe substrate)", "setting": "CYP2C19 [6]; 60 mg dose level", "value": "moderate (2‐ to <5‐fold)"}, {"measurement": "in vivo CYP inhibition class (FDA guidance, AUC of probe substrate)", "setting": "CYP2C19 [6]; 100 mg dose level", "value": "strong (≥5‐fold)"}, {"measurement": "overall in vivo inhibitor class", "setting": "CYP2C19 [6]; doses from 20 to 100 mg", "value": "moderate to strong"}, {"measurement": "Ki", "setting": "CYP2C8", "value": 15, "unit": "µM"}, {"measurement": "R value (FDA)", "setting": "CYP2C8; ASP8477 20 mg QD", "value": 1.074}, {"measurement": "R value (EMA)", "setting": "CYP2C8; ASP8477 20 mg QD", "value": 0.011}, {"measurement": "R value (FDA)", "setting": "CYP2C8; ASP8477 60 mg QD", "value": 1.385}, {"measurement": "R value (EMA)", "setting": "CYP2C8; ASP8477 60 mg QD", "value": 0.06}, {"measurement": "in vivo CYP inhibition class (FDA guidance, AUC of probe substrate)", "setting": "CYP2C9 [7]; 20 mg dose level", "value": "no effect"}, {"measurement": "in vivo CYP inhibition class (FDA guidance, AUC of probe substrate)", "setting": "CYP2C9 [7]; 60 mg dose level", "value": "weak (1.25‐ to <2‐fold)"}, {"measurement": "in vivo CYP inhibition class (FDA guidance, AUC of probe substrate)", "setting": "CYP2C9 [7]; 100 mg dose level", "value": "weak (1.25‐ to <2‐fold)"}, {"measurement": "overall in vivo inhibitor class", "setting": "CYP2C9 [7]; doses from 20 to 100 mg", "value": "weak (1.25‐ to <2‐fold)"}, {"measurement": "fraction of unbound ASP8477", "setting": "[8]", "value": 15, "unit": "%"}, {"measurement": "steady state achieved (mean trough concentration‐time profiles)", "setting": "[9]; 20 mg once daily", "value": 1, "unit": "days"}, {"measurement": "steady state achieved (mean trough concentration‐time profiles)", "setting": "[9]; 60 mg once daily", "value": 3, "unit": "days"}, {"measurement": "steady state achieved (mean trough concentration‐time profiles)", "setting": "[9]; 100 mg once daily", "value": 10, "unit": "days"}, {"measurement": "dose excreted in urine as unchanged drug", "setting": "[9]", "value": "Approximately 1%"}, {"measurement": "Ki", "setting": "CYP2C19 [10]", "value": 1, "unit": "µM"}, {"measurement": "R value (FDA)", "setting": "CYP2C19 [10]; ASP8477 20 mg QD", "value": 2.116}, {"measurement": "R value (EMA)", "setting": "CYP2C19 [10]; ASP8477 20 mg QD", "value": 0.167}, {"measurement": "R value (FDA)", "setting": "CYP2C19 [10]; ASP8477 60 mg QD", "value": 6.781}, {"measurement": "R value (EMA)", "setting": "CYP2C19 [10]; ASP8477 60 mg QD", "value": 0.87}, {"measurement": "Ki", "setting": "CYP2D6 [11]", "value": 9.8, "unit": "µM"}, {"measurement": "R value (FDA)", "setting": "CYP2D6 [11]; ASP8477 20 mg QD", "value": 1.114}, {"measurement": "R value (EMA)", "setting": "CYP2D6 [11]; ASP8477 20 mg QD", "value": 0.017}, {"measurement": "R value (FDA)", "setting": "CYP2D6 [11]; ASP8477 60 mg QD", "value": 1.590}, {"measurement": "R value (EMA)", "setting": "CYP2D6 [11]; ASP8477 60 mg QD", "value": 0.09}]}]}
